Laboratory results from patent US20190125735A1, “INHIBITION OF P38 MAPK FOR THE TREATMENT OF CANCER” (Board of Regents, The University of Texas System, priority 2015, published 2019).
Like-named read-outs stand apart in the source and are kept apart here. Where a SMILES comes first, the peptide text is derived from it. The star is where a group is joined. Cbz = O=C(OCc1ccccc1)*

What was measured:
[1] = tested on: BCR-ABL+ mouse ALL cells seeded on MSCs (OP9 cells); test: Clinical compound library screen, imatinib-pretreated MSC / BCR-ABL+ ALL cell co-culture; format: cell-based
Experimental: The effectiveness of the compounds was determined in preventing cluster formation by microscopy and the toxicity of the compounds by bioluminescence imaging of co-cultured MSCs and leukemic cells.
The clinical compounds library was purchased from the John S. Dunn Gulf Coast Consortium for Chemical Genomics (Houston, Tex.). […] Then, luciferase-labeled BCR-ABL+ mouse ALL cells were seeded on to the MSCs. Treatment was continued for 1 day, and the samples were evaluated via phase-contrast microscopy for the formation of leukemic cell clusters underneath the pretreated MSCs. To determine the compounds' toxicity in MSCs or leukemic cells, we examined the MSC/ALL cell co-cultures via microscopy and/or bioluminescence imaging.
Phase-contrast images of co-cultured MSCs and ALL cells were obtained using an Axio Observer.Z1 microscope, an AxioCam MR camera, and AxioVision software (Zeiss, Oberkochen, Germany). For screening, a cluster was defined as a group of more than five leukemic cells under the MSCs. The total number of leukemic cell clusters was the average number of clusters from three different fields (10× objective). For post-screening experiments, a cluster was defined as a group of more than 10 leukemic cells under the MSCs. The total number of leukemic cell clusters was the average number of clusters from 10 different fields (10× objective).

DU145 cells [2] = test: MTS cell survival assay, DU145 cells; format: cell-based, human
Experimental: (§1) Immunoblotting, Immunofluorescence, RTPCR, wound healing- and tumorsphere assays were performed as previously described (Sarkar et al., 2015). Cell viability (MTS) was assessed using the CellTiter96 Aqueous One-Solution Cell Proliferation Assay kit (Promega).

LNCaP cells = test: MTS cell survival assay, LNCaP cells over-expressing FOXC2; format: cell-based, human; settings: LNCaP cells with FOXC2 expression
Excerpt: Since FOXC2 is induced downstream of several different EMT inducers, and is by itself capable of potentiating the effects of multiple independent EMT signals (Taube et al., 2010), it was queried how ectopic expression of FOXC2 would impact the behavior of epithelial-like LNCaP cells, which are androgen-dependent. […] Again, FOXC2-induced EMT was associated with a reduction in PSA-promoter activity (as determined by loss in GFP) (FIG. 3A-lower panel), as well as loss in AR expression (FIGS. 3B,C).
as §1

DU145 cells [3] = settings: parental DU145 cells, even at 10 μM; cited from earlier work
DU145 cells [4] = test: DU145 subcutaneous tumors in NOD/SCID mice; format: in vivo; settings: subcutaneous dosing 5 days/week; SB203580 0.2 μmols per mouse, Enzalutamide 10 mg/kg; vs vehicle
Experimental: To investigate the effect of inhibition of FOXC2-dependent EMT/CSC attributes on tumor formation in vivo, NOD/SCID mice were subcutaneously injected with DU145 cells and began treatment in vivo, after formation of palpable tumors.
Immediately after sacrificing the mice, ˜100 μl blood was isolated via venipuncture in EDTA-treated collection tubes and stored on ice. Within 30 minutes, the blood was spun down at 1200 rpm for 5 minutes, and the pellet resuspended in 1 ml ACK-lysing buffer (Life Tech) and further incubated for 3-5 minutes. Cells were washed once with PBS, resuspended in RPMI with 10% FBS and pen/strep, and cultured on 10 cm tissue culture dishes. RFP-positive colonies (originating from the labeled DU145 cells injected into mice) were counted after 3-4 days in culture and quantified.
˜4 week-old male NOD.CB17-Prkdcscid/J mice were purchased from the Jackson Laboratory (Maine, USA). […] Once palpable tumors were discernable, tumor-bearing mice were randomly segregated into 4 groups, and drug treatment was initiated every 24 hours for 5 days/week. […] Investigators were blinded to the group allocation while assessing experimental outcomes. At the end of the treatment period, tumors were excised, average diameter calculated using calipers, and tumor weight noted. […]

DU145 cells [5] = test: Tumorsphere assay, DU145 cells; format: cell-based, human; settings: DU145, LY364947 1 μM
Experimental: (§2) Cell lines: Authenticated LNCaP, DU145, and PC3 cells were procured from ATCC and cultured in RPMI with 10% fetal bovine serum (FBS) with penicillin/streptomycin. Cells overexpressing EMT transcription factors and shRNA were also cultured in the same media. HEK293T cells were cultured in DMEM with 10% FBS and penicillin/streptomycin. All cell lines used for this study were recently confirmed negative for mycoplasma contamination.
as §1

DU145 cells [6] = test: Morphology and marker expression (qRTPCR, immunoblotting, IF) in DU145 cells; format: cell-based, human; settings: DU145, LY364947 1 μM
Experimental: as §2, §1

HMLE-Snail cells = test: Sphere formation in ultra-low attachment plates, HMLE-Snail cells; format: cell-based, human; settings: cultured 7-10 days; for IC50: Homo sapiens, read-out: Concentration of the drug that induced 50% reduction in sphere formation
Experimental: (§3) (A) HMLER-Snail cells were treated with various p38 inhibitors. Cells were seeded in ultra-low attachment plates and cultured for 7-10 days. Spheres with a diameter greater than […] were counted. The data are reported as the number of spheres formed/1000 seeded cells±SEM. […] (B) SUM159 cells were treated with various p38 inhibitors. Cells were seeded in ultra-low attachment plates and cultured for 7-10 days. Spheres with a diameter greater than 75 μm were counted. The data are reported as the number of spheres formed/1000 seeded cells±SEM. […] (C) HMLE-Snail cells were treated with various p38 inhibitors. Cells were seeded in ultra-low attachment plates and cultured for 7-10 days. Spheres with a diameter greater than 75 μm were counted. The data are reported as the number of spheres formed/1000 seeded cells±SEM. […] (D) Western blots of HMLER-Snail cell treatment with various p38 inhibitors on Day 2 of treatment.

HMLER-Snail cells = test: Sphere formation in ultra-low attachment plates, HMLER-Snail cells; format: cell-based; settings: Homo sapiens, cultured 7-10 days, spheres >75 μm, read-out: Concentration of the drug that induced 50% reduction in sphere formation
Experimental: as §3

SUM159 cells = test: Sphere formation in ultra-low attachment plates, SUM159 cells; format: cell-based; settings: Homo sapiens, cultured 7-10 days, read-out: Concentration of the drug that induced 50% reduction in sphere formation
Experimental: as §3

FOXC2 = FOXC2 protein levels by immunoblotting in mammary cell lines; format: cell-based, human; settings: pre-treatment with 10 μM MG132
Experimental: Immortalized human mammary epithelial (HMLE) cells expressing empty vector (pWZL), Snail, Twist, Goosecoid (GSC), or an activated form of TGFβ1, V12H-Ras-transformed HMLE (HMLER) and HMLER-FOXC2 cells were maintained as previously described (Elenbaas et al., 2001) For 4-hydroxy-tamoxifen (4-OHT) treatment, HMLE-Snail-ER or HMLE-Twist-ER cells were exposed to 20 nM 4-OHT for the indicated number of days. MCF7, MDA-MB-231 and SUM159 human breast cancer cells and the 4T1 mouse mammary carcinoma cells were cultured as described. Human non-tumorigenic MCF10A cells were cultured as described (Hollier et al., 2013), and treated with 2.5 ng/ml TGFβ1 for 3 days to elicit EMT.
Immunoblotting and immunofluorescence (Mani et al., 2008) were performed as previously described. Primary antibodies were as follows: β-actin (Sigma, St Louis, Mo., USA; A3853), mouse anti-human FOXC2 (Dr. Naoyuki Miura, Hamamatsu University School of Medicine, Japan), goat polyclonal anti-FOXC2 (Santa Cruz Biotechnology, Dallas, Tex., USA; sc-21397), p-p38 (Cell Signaling, Danvers, Mass., USA; 4511), p38 (Cell Signaling; 9211), E-cadherin (BD Biosciences, San Jose, Calif., USA; 61081), fibronectin (BD Biosciences; 610077), vimentin (Novus Biologicals, Littleton, Colo., USA; NB200-623), ZEB1 (Novus Biologicals; NBP1-05987), and HA (Covance, Princeton, N.J., USA; MMS-101P).

FOXC2 protein = test: Western blots of FOXC2 protein in HMLER-Snail cells; format: cell-based; settings: Homo sapiens, 48 h, Day 2 of treatment, read-out: Concentration of the drug that induced 50% reduction in FOXC2 protein
Experimental: as §3

[7] = imatinib 5 μM + compound 6.6 μM (dexamethasone 50 nM), 3 days pretreatment + 1 day

## CNCc1ccc(-c2[nH]c3cc(F)cc4c3c2CCNC4=O)cc1 [AG014699]
[1]; [7]
  Imatinib-induced leukemic cell cluster formation: eliminated the leukemic cell clusters by eliciting toxicity toward clustered leukemic cells

## O=C(c1cc(Cc2n[nH]c(=O)c3ccccc23)ccc1F)N1CCN(C(=O)C2CC2)CC1 [AZD2281]
[1]; [7]
  Imatinib-induced leukemic cell cluster formation: eliminated the leukemic cell clusters by eliciting toxicity toward clustered leukemic cells

## CN1CCN(c2ccc3nc(-c4c(N)c5c(F)cccc5[nH]c4=O)[nH]c3c2)CC1 [CHIR258]
[1]
  Imatinib-induced leukemic cell cluster formation: eliminated the leukemic cell clusters by eliciting toxicity toward clustered leukemic cells

## Cc1c[nH]c(-c2cnc(NCCNc3ccc(C#N)cn3)nc2-c2ccc(Cl)cc2Cl)n1 [CHIR99021]
[1]; [7]
  Imatinib-induced leukemic cell cluster formation: directly prevented imatinib-induced leukemic cell cluster formation

## COc1cc2c(cc1OC)[C@@H]1C(=O)c3ccc4c(c3O[C@@H]1CO2)C=CC(C)(C)O4 [DEGUELIN]
[1]; [7]
  Imatinib-induced leukemic cell cluster formation: directly prevented imatinib-induced leukemic cell cluster formation

## CC(=O)O[C@@]12CO[C@@H]1C[C@H](O)[C@@]1(C)C(=O)[C@H](O)C3=C(C)[C@@H](OC(=O)[C@H](O)[C@@H](NC(=O)OC(C)(C)C)c4ccccc4)C[C@@](O)([C@@H](OC(=O)c4ccccc4)[C@H]21)C3(C)C [Docetaxel]
DU145 cells [2]; DU145 with loss of FOXC2 expression, 100 nM Docetaxel
  Susceptibility of cells to the drug (cell survival): more susceptible
LNCaP cells
  Resistance of cells to the drug (cell survival): increasingly resistant

## CNC(=O)c1ccc(N2C(=S)N(c3ccc(C#N)c(C(F)(F)F)c3)C(=O)C2(C)C)cc1F [Enzalutamide]
DU145 cells [2]; DU145 with FOXC2 suppression, 100 nM Enzalutamide
  Sensitivity of cells to the drug (cell survival): more sensitive
DU145 cells [3]
  Sensitivity of cells to the drug: insensitive
DU145 cells [4]
  Tumor size (volume and weight): no appreciable change in tumor size
LNCaP cells
  Resistance of cells to the drug (cell survival): increasingly resistant

## c1ccc(-c2[nH]ncc2-c2ccnc3ccccc23)nc1 [LY364947]
DU145 cells [5]
  Tumorsphere-forming capacity: markedly reduced tumorsphere-forming capacity
DU145 cells [6]
  FOXC2 expression and p38 signaling: concomitant loss in FOXC2 expression and p38 signaling

## CC(C)(C)Cn1c(N)nc2ccc(-c3[nH]c(C(C)(C)C)nc3-c3ccc(F)cc3)nc21 [LY2228820]
HMLE-Snail cells
  IC50: 3000 nM
HMLER-Snail cells
  IC50: 10 nM
SUM159 cells
  IC50: 300 nM

## CC(C)C[C@@H](C=O)NC(=O)[C@H](CC(C)C)NC(=O)[C@H](CC(C)C)NC(=O)OCc1ccccc1 [MG132] (Cbz-Leu-Leu-Leu-aldehyde)
FOXC2
  Proteolytic degradation of FOXC2 following SB203580 treatment: rescued the proteolytic degradation of FOXC2

## CNC(=O)c1ccc(C)c(-n2c(C)cc(OCc3ccc(F)cc3F)c(Br)c2=O)c1 [PH797804]
HMLE-Snail cells
  IC50: 300 nM
HMLER-Snail cells
  IC50: 10 nM
SUM159 cells
  IC50: 100 nM
FOXC2 protein
  IC50: 50 nM

## Cc1ccc([N+](=O)[O-])cc1S(=O)(=O)N(C)/N=C/c1cnc2ccc(Br)cn12 [PIK75]
[1]; [7]
  Imatinib-induced leukemic cell cluster formation: eliminated the leukemic cell clusters by eliciting toxicity toward clustered leukemic cells

## Oc1ccc(-c2nc(-c3ccc(F)cc3)c(-c3ccncc3)[nH]2)cc1 [SB202190, 4-(4-fluorophenyl)-2-(4-hydroxyphenyl)-5-(4-pyridyl)-1H-imidazole]
[1]; [7]
  Imatinib-induced leukemic cell cluster formation: directly prevented imatinib-induced leukemic cell cluster formation

## O=C1NC(=O)c2c1c1c3ccccc3n3c1c1c2c2ccccc2n1C1CCC3O1 [SB218078]
[1]; [7]
  Imatinib-induced leukemic cell cluster formation: directly prevented imatinib-induced leukemic cell cluster formation

## NC(=O)c1ccc(N(C(N)=O)c2c(F)cccc2F)nc1-c1ccc(F)cc1F [VX-702]
HMLE-Snail cells
  Inhibition of sphere formation: did not inhibit sphere formation
[1]; [7]
  Imatinib-induced leukemic cell cluster formation: directly prevented imatinib-induced leukemic cell cluster formation
HMLER-Snail cells
  IC50: 50000 nM
SUM159 cells
  IC50: 50000 nM

## C[C@@H](N)[C@H]1CC[C@H](C(=O)Nc2ccncc2)CC1 [Y-27632]
[1]; [7]
  Imatinib-induced leukemic cell cluster formation: directly prevented imatinib-induced leukemic cell cluster formation

## Cc1ccc(NC(=O)c2ccc(CN3CCN(C)CC3)cc2)cc1Nc1nccc(-c2cccnc2)n1 [imatinib]
MSCs
  Phosphorylation of PDGFR-α/β: reduced phosphorylation of PDGFR-α/β
MSCs; vs control
  Phosphorylation of ATF2: higher phosphorylation of ATF2 than control
